Source: patent US12466838B2, “Crystalline form of a multi-tyrosine kinase inhibitor, method of preparation, and use thereof” (Mirati Therapeutics, Inc., priority 2019, dated 2025)
Entries after “also recorded” stand apart in the source; their conditions may differ.

Assays:
[1] = Drying experiments (non-solvent based), solid form by XRPD; assay type: physicochemical; conditions: Vacuum oven drying, ~40° C., 2.5
Description: (§1) XRPD patterns were collected with a PANalytical X'Pert PRO MPD diffractometer using an incident beam of Cu radiation produced using an Optix long, fine-focus source. An elliptically graded multilayer mirror was used to focus Cu Kα X-ray radiation through the specimen and onto the detector. Prior to the analysis, a silicon specimen (NIST SRM 640d) was analyzed to verify the observed position of the Si (111) peak is consistent with the NIST-certified position. A specimen of the sample was sandwiched between 3-μm-thick films and analyzed in transmission geometry. A beam-stop, short antiscatter extension, and antiscatter knife edge, were used to minimize the background generated by air. Soller slits for the incident and diffracted beams were used to minimize broadening from axial divergence. Diffraction patterns were collected using a scanning position-sensitive detector (X'Celerator) located 240 mm from the specimen and Data Collector software v. 2.2b.
Limited non-solvent based experiments were conducted with materials generated during the stable form screen and included short term vacuum drying at elevated temperature.

[2] = Slurry interconversion experiments, solid form by XRPD; assay type: physicochemical; conditions: slurry of Forms C, D, and H in ethyl acetate
Description: as §1
To investigate the relationship between selected materials produced during screening, limited slurry interconversion experiments were conducted. The experiments were performed by slurring seeds of solids of interest at ambient temperature in two different solvent systems. All materials were vacuum dried prior to the slurry (˜40° C., ˜2.5 hours). Solvent conditions were selected to achieve sufficient solubility of materials tested. […]

[3] = Preliminary physical stability assessment of Form D, XRPD; assay type: physicochemical
Description: as §1, with “2.2b. Preliminary physical stability assessment of Form D was performed. […] The XRPD patterns of the stressed materials show no significant peak shifts compared to the untreated samples. The XRPD pattern of Form D obtained from high water activity slurry is consistent with the pattern of the untreated material. However, small shifts of selected peaks were observed, possibly due to hydration.” for “2.2b.”

[4] = system: human xenograft tumor models; conditions: multiple human xenograft tumor models in mice; cited from earlier work
[5] = system: tyrosine kinases, including RET, CBL, CHR4q12, DDR and Trk; conditions: cited from earlier work

COCCNCc1ccc(-c2cc3nccc(Oc4ccc(NC(=O)C5(C(=O)Nc6ccc(F)cc6)CC5)cc4F)c3s2)nc1 [Form H, N-(3-fluoro-4-((2-(5-(((2-methoxyethyl)amino)methyl)pyridin-2-yl)thieno[3,2-b]pyridin-7-yl)oxy)phenyl)-N-(4-fluorophenyl)cyclopropane-1,1-dicarboxamide]
XRPD Results after drying [1]: Form H | relative thermodynamic stability among Forms C, D and H [2]: least thermodynamically stable

COCCNCc1ccc(-c2cc3nccc(Oc4ccc(NC(=O)C5(C(=O)Nc6ccc(F)cc6)CC5)cc4F)c3s2)nc1 [Form C, N-(3-fluoro-4-((2-(5-(((2-methoxyethyl)amino)methyl)pyridin-2-yl)thieno[3,2-b]pyridin-7-yl)oxy)phenyl)-N-(4-fluorophenyl)cyclopropane-1,1-dicarboxamide]
XRPD Results after drying [1]: Form C

COCCNCc1ccc(-c2cc3nccc(Oc4ccc(NC(=O)C5(C(=O)Nc6ccc(F)cc6)CC5)cc4F)c3s2)nc1 [Form D]
XRPD Results (physical stability) ([3]; Acetone/water (40/60), slurry, RT): Consistent with Form D, slight peak shifts | XRPD Results (physical stability) ([3]; EtOH/water (40/60), slurry, RT): Consistent with Form D, slight peak shifts | XRPD Results (physical stability) ([3]; Water, slurry, RT): Consistent with Form D, slight peak shifts | XRPD Results (physical stability) ([3]; ~43% RH/RT): remained unchanged; also recorded: Consistent with Form D, no significant shifts of peaks | XRPD Results (physical stability) ([3]; ~75% RH/RT): remained unchanged; also recorded: Consistent with Form D, no significant shifts of peaks | XRPD Results after drying [1]: remained unchanged; also recorded: Form D

COCCNCc1ccc(-c2cc3nccc(Oc4ccc(NC(=O)C5(C(=O)Nc6ccc(F)cc6)CC5)cc4F)c3s2)nc1 [Compound 1, N-(3-fluoro-4-((2-(5-(((2-methoxyethyl)amino)methyl)pyridin-2-yl)thieno[3,2-b]pyridin-7-yl)oxy)phenyl)-N-(4-fluorophenyl)cyclopropane-1,1-dicarboxamide]
tumor regression [4]: shows tumor regression | inhibition of a closely related spectrum of tyrosine kinases [5]: potent inhibition
